Experimental data reported in BindingDB's records for patent US20250136596 (Insilico Medicine IP, 2025).

Molecular target: T1, Membrane-associated tyrosine- and threonine-specific cdc2-inhibitory kinase (Homo sapiens, UniProt Q99640)
T1 sequence (Q99640 whole entry): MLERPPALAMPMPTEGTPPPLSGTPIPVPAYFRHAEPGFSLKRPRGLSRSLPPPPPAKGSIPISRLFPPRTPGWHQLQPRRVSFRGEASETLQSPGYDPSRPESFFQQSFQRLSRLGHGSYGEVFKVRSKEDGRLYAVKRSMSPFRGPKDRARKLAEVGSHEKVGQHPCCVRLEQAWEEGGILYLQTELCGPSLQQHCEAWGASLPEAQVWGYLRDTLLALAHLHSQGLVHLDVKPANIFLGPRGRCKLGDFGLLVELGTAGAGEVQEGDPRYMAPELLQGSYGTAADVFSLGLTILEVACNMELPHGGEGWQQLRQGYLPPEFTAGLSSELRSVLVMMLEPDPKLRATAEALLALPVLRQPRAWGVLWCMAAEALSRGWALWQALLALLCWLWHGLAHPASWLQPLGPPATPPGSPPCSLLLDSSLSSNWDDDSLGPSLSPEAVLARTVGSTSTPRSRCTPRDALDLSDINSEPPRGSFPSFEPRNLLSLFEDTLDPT
Test: PKMYT1 HTRF Assay
Procedure: Compound serial dilution is performed by Echo, and the final concentrations vary from 10 μM to 0.5 nM. This was filled by the addition of 5 μL/well of Enzyme solution to the assay plate containing the compound. The plate was centrifuged at 1000 rpm for 1 minute, and incubate 15 minutes at 25 […]. Then 5 μL/well of tracer solution (Tracer 178) was added to initiate the reaction, and incubate for 60 minutes at 25° C. Next 5 μL GST-Tb was added into the assay plate, the plate was centrifuged at 1000 rpm for 1 minute, and incubate for 15 minutes at 25 […]. The assay plate was read on Envision.

SMILES | IC50 [nM]
Cc1ncc(-c2[nH]c3ncc(-c4c(C)ccc(O)c4C)c(C#N)c3c2F)cn1 [US20250136596, Example 35] | < 10
Cc1ccc(O)c(C)c1-c1cnc2[nH]c(-c3cnc4cn[nH]c4c3)cc2c1C#N [US20250136596, Example 124] | < 10
CNc1ncc(-c2cc3c(C#N)c(-c4c(C)ccc(O)c4C)cnc3[nH]2)cn1 [US20250136596, Example 41] | < 10
Cc1ccc(O)c(C)c1-c1cnc2[nH]c(-c3cnc(N)c(C(F)(F)F)c3)cc2c1C#N [US20250136596, Example 62] | < 10
COc1ncc(-c2cc3c(C#N)c(-c4c(C)ccc(O)c4C)cnc3[nH]2)cn1 [US20250136596, Example 51] | < 10
Cc1ccc(O)c(C)c1-c1cnc2[nH]c(-c3cnc(S(C)(=O)=O)nc3)cc2c1C#N [US20250136596, Example 95] | < 10
Cc1ncc(-c2[nH]c3ncc(-c4c(C)ccc(O)c4C)c(C#N)c3c2C)cn1 [US20250136596, Example 107] | < 10
Cc1ncc(-c2cc3c(Cl)c(-c4c(C)ccc(O)c4C)cnc3[nH]2)cn1 [US20250136596, Example 23] | < 10
Cc1ccc(O)c(C)c1-c1cnc2[nH]c(-c3cncc(C#N)c3)cc2c1C#N [US20250136596, Example 61] | < 10
